In ChEMBL document CHEMBL4325918, “Allosteric CB1 Receptor Modulators for the Treatment of CB1 Related Diseases and Conditions” (ACS Med Chem Lett, 2018):
Active and inactive are the calls of the source. The calls are words filed in the database; no cut-off is given here.

What was measured:
Cannabinoid receptor 1 [1] = target: T1, Cannabinoid receptor 1 (Homo sapiens, UniProt P21554); test: Allosteric modulation of CB1 receptor (unknown origin) assessed as inhibition of CP55940-induced [35S]GTPgammaS binding; type: functional
T1 sequence (P21554 whole entry): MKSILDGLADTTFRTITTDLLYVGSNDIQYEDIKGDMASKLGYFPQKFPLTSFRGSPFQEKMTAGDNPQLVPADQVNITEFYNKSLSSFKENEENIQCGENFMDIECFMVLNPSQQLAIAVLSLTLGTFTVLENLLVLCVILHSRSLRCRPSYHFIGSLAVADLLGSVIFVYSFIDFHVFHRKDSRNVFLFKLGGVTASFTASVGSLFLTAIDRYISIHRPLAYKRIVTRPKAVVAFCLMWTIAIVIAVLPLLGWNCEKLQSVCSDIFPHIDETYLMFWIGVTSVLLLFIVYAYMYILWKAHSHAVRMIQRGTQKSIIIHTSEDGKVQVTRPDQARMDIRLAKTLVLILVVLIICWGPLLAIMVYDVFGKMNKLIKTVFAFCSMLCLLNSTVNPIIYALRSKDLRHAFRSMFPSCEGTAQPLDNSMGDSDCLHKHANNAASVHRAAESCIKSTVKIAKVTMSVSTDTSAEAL

Cannabinoid receptor 1 [2] = target: T1, Cannabinoid receptor 1; test: Agonist activity at CB1 receptor (unknown origin) relative to CP55940
Rattus norvegicus = test: Reduction in cocaine-induced reinstatement of cocaine seeking behavior in Sprague-Dawley rat at 10 mg/kg; type: functional, organism-based
[3] = Half life in Sprague-Dawley rat; type: ADME; conditions: in vivo

Row | IC50 (Cannabinoid receptor 1 [1]) [nM] | Emax (Cannabinoid receptor 1 [2]) [%] | half-life [3] [h] | SMILES | Activity (Rattus norvegicus)
1 | 776 | 3.7 |  | Cc1cc(-c2cccc(NC(=O)Nc3ccc(Cl)cc3)c2)cs1 | 
2 | 353 |  |  | O=C(Nc1ccc(Cl)cc1)Nc1cccc(-c2ccc(F)cc2F)c1 | 
3 | 164 | 28.9 |  | O=C(Nc1ccc(Cl)cc1)Nc1cccc(-c2ccsc2)c1 | 
4 | 437 |  |  | O=C(Nc1ccc(Cl)cc1)Nc1cccc(-c2ccccc2)c1 | 
5 | 2650 |  |  | O=C(Nc1ccc(Cl)cc1)Nc1cccc(-c2ccccn2)c1 | 
6 | 372 | 4.6 |  | Cc1ccc(-c2cccc(NC(=O)Nc3ccc(Cl)cc3)c2)s1 | 
7 | 151 |  | 5 | O=C(Nc1ccc(Cl)cc1)Nc1cccc(-c2ccc(F)cc2)c1 | Active

Row | SMILES | IC50 (Cannabinoid receptor 1 [1]) [nM] | Emax (Cannabinoid receptor 1 [2]) [%] | half-life [3] [h] | Activity (Rattus norvegicus)
8 | O=C(Nc1ccc(Cl)cc1)Nc1cccc(N2CCC2)c1 | 1380 |  |  | 
9 | O=C(Nc1ccc(Cl)cc1)Nc1cccc(-c2ccoc2)c1 | 440 |  |  | 
10 | O=C(Nc1ccc(Cl)cc1)Nc1cccc(-c2cccc([N+](=O)[O-])c2)c1 | 452 |  |  | 
11 | O=C(Nc1ccc(Cl)cc1)Nc1cccc(-c2cc(Cl)cc(Cl)c2)c1 | 299 |  |  | 
